Data taken from ChEMBL document CHEMBL1201862, “PubChem BioAssay data set” (2004).
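How tested: cells in 96-well plates exposed to compound for 48 hours at five concentrations. GI50 is the concentration that inhibits growth by half.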 The source made the active and inactive calls. No stated cut-off is given here; in the data, active = GI50 up to about 1.1 µM and inactive = higher.

Assays:
Assay in all cases: NCI anticancer screen, dose series, 48 h
[1] = system: MOLT-4
[2] = system: CAKI-1
[3] = system: HCC 2998
[4] = system: SF-539
[5] = system: RXF 393
[6] = system: DU-145
[7] = system: PC-3
[8] = system: NCI/ADR-RES
[9] = system: HL-60
[10] = system: SNB-19
[11] = system: MDA-MB-231
[12] = system: UO-31
[13] = system: NCI-H460
[14] = system: K562
[15] = system: SK-MEL-2
[16] = system: SK-MEL-5
[17] = system: MCF7
[18] = system: SNB-75
[19] = system: SK-MEL-28
[20] = system: Hs-578T

N[C@H]1CCN(c2c(F)cc3c(=O)c(C(=O)O)cn4c3c2Oc2cc3c(ccc5ccccc53)cc2-4)C1
GI50 [1]: 1.45 µM (inactive)
GI50 [2]: 3.6 µM (inactive)
GI50 [3]: 1.99 µM (inactive)
GI50 [4]: 1.7 µM (inactive)
GI50 [5]: 6.41 µM (inactive)
GI50 [6]: 4.05 µM (inactive)
GI50 [7]: 2.17 µM (inactive)
GI50 [8]: 8.17 µM (inactive)
GI50 [9]: 3.79 µM (inactive)
GI50 [10]: 5.81 µM (inactive)
GI50 [11]: 0.014 µM (active)
GI50 [12]: 4.79 µM (inactive)
GI50 [13]: 1.94 µM (inactive)
GI50 [14]: 2.82 µM (inactive)
GI50 [15]: 2.96 µM (inactive)
GI50 [16]: 1.87 µM (inactive)
GI50 [17]: 2.63 µM (inactive)

CNS(=O)(=O)NN(C)S(=O)(=O)c1ccccc1
GI50 [1]: > 100 µM (inactive)
GI50 [2]: > 100 µM (inactive)
GI50 [3]: > 100 µM (inactive)
GI50 [4]: > 100 µM (inactive)
GI50 [5]: 0.472 µM (active)
GI50 [9]: > 100 µM (inactive)
GI50 [10]: > 100 µM (inactive)
GI50 [12]: > 100 µM (inactive)
GI50 [13]: 85.9 µM (inactive)
GI50 [14]: > 100 µM (inactive)
GI50 [15]: > 100 µM (inactive)
GI50 [18]: > 100 µM (inactive)
GI50 [16]: > 100 µM (inactive)

CN(CC(=O)O)S(=O)(=O)c1ccc2ccccc2c1
GI50 [1]: > 100 µM (inactive)
GI50 [2]: > 100 µM (inactive)
GI50 [3]: > 100 µM (inactive)
GI50 [4]: > 100 µM (inactive)
GI50 [5]: > 100 µM (inactive)
GI50 [9]: > 100 µM (inactive)
GI50 [10]: > 100 µM (inactive)
GI50 [12]: > 100 µM (inactive)
GI50 [13]: > 100 µM (inactive)
GI50 [14]: > 100 µM (inactive)
GI50 [15]: > 100 µM (inactive)
GI50 [18]: > 100 µM (inactive)
GI50 [19]: > 100 µM (inactive)
GI50 [16]: > 100 µM (inactive)

O=C1CN(c2cccc(Cl)c2)C(=O)CN1NCNN1CC(=O)N(c2cccc(Cl)c2)CC1=O
GI50 [1]: > 100 µM (inactive)
GI50 [2]: > 100 µM (inactive)
GI50 [3]: > 100 µM (inactive)
GI50 [4]: > 100 µM (inactive)
GI50 [5]: > 100 µM (inactive)
GI50 [6]: > 100 µM (inactive)
GI50 [7]: > 100 µM (inactive)
GI50 [9]: > 100 µM (inactive)
GI50 [10]: > 100 µM (inactive)
GI50 [12]: > 100 µM (inactive)
GI50 [13]: > 100 µM (inactive)
GI50 [18]: 38.3 µM (inactive)
GI50 [19]: > 100 µM (inactive)
GI50 [20]: > 100 µM (inactive)
GI50 [16]: > 100 µM (inactive)
GI50 [17]: > 100 µM (inactive)

O=c1/c(=C/c2ccccc2[N+](=O)[O-])sc2nnc(-c3cccnc3)n12
GI50 [1]: 63.5 µM (inactive)
GI50 [2]: 1.43 µM (inactive)
GI50 [3]: > 100 µM (inactive)
GI50 [4]: > 100 µM (inactive)
GI50 [5]: > 100 µM (inactive)
GI50 [9]: > 100 µM (inactive)
GI50 [10]: 17.7 µM (inactive)
GI50 [12]: > 100 µM (inactive)
GI50 [13]: > 100 µM (inactive)
GI50 [14]: 74.1 µM (inactive)
GI50 [15]: > 100 µM (inactive)
GI50 [18]: > 100 µM (inactive)
GI50 [19]: > 100 µM (inactive)
GI50 [16]: > 100 µM (inactive)

O=c1n(-c2ccccc2)c(=O)n2n1C1C=CC2C2C(C1)C2(Cl)Cl (stereo not given)
GI50 [1]: > 100 µM (inactive)
GI50 [2]: > 100 µM (inactive)
GI50 [3]: > 100 µM (inactive)
GI50 [4]: > 100 µM (inactive)
GI50 [5]: > 100 µM (inactive)
GI50 [9]: > 100 µM (inactive)
GI50 [10]: > 100 µM (inactive)
GI50 [12]: > 100 µM (inactive)
GI50 [13]: > 100 µM (inactive)
GI50 [14]: > 100 µM (inactive)
GI50 [15]: > 100 µM (inactive)
GI50 [18]: > 100 µM (inactive)
GI50 [16]: > 100 µM (inactive)

COC(=O)[C@@H]1C=C[C@@H](C#N)n2c(=O)n(-c3ccccc3)c(=O)n21
GI50 [1]: 34.7 µM (inactive)
GI50 [2]: 98.9 µM (inactive)
GI50 [3]: 33.3 µM (inactive)
GI50 [4]: 20.8 µM (inactive)
GI50 [6]: 25.5 µM (inactive)
GI50 [8]: 26.4 µM (inactive)
GI50 [10]: > 100 µM (inactive)
GI50 [11]: 19.7 µM (inactive)
GI50 [12]: 41.9 µM (inactive)
GI50 [14]: 37.9 µM (inactive)
GI50 [18]: 26.7 µM (inactive)
GI50 [19]: 17 µM (inactive)
GI50 [20]: 23.7 µM (inactive)
GI50 [16]: 46.3 µM (inactive)
GI50 [17]: 19.5 µM (inactive)

[O-][n+]1c(-c2ccccc2)oc2ccccc21
GI50 [1]: > 69.7 µM (inactive)
GI50 [2]: > 41.1 µM (inactive)
GI50 [3]: 19.1 µM (inactive)
GI50 [4]: 16.3 µM (inactive)
GI50 [5]: 21.2 µM (inactive)
GI50 [9]: 5.28 µM (inactive)
GI50 [10]: 24.7 µM (inactive)
GI50 [12]: 13.1 µM (inactive)
GI50 [13]: 4.98 µM (inactive)
GI50 [14]: 11.9 µM (inactive)
GI50 [15]: 17.7 µM (inactive)
GI50 [18]: 16.7 µM (inactive)
GI50 [19]: 18.1 µM (inactive)
GI50 [16]: 2.25 µM (inactive)

[O-][S+]1c2ccccc2N=C(c2ccc3ccccc3c2)CC1C1=CC=CCC1 (stereo not given)
GI50 [1]: 13.7 µM (inactive)
GI50 [2]: 16.1 µM (inactive)
GI50 [3]: 13.1 µM (inactive)
GI50 [4]: 21.9 µM (inactive)
GI50 [5]: 16.8 µM (inactive)
GI50 [9]: 17.6 µM (inactive)
GI50 [10]: > 10 µM (inactive)
GI50 [12]: 13.8 µM (inactive)
GI50 [13]: 20.3 µM (inactive)
GI50 [14]: 10.3 µM (inactive)
GI50 [15]: 19.1 µM (inactive)
GI50 [18]: 17.9 µM (inactive)
GI50 [19]: 18.2 µM (inactive)
GI50 [16]: 16.6 µM (inactive)
